Experimental data: patent US20020137929A1, “1 - (3-heterocyclylphenyl) isothiourea, -isourea, -guanidine and -amidine herbicidal agents” (Intellectual Property Department, BASF Aktiengesellschaft, priority 1998, published 2002)

Tests used:
[1] = system: CASOB (Sicklepod); assay: Preemergence herbicidal evaluation; format: in vivo, Cassia obtusifolia; settings: rated 4-5 weeks after treatment; for CASOB rating: preemergence, 0-9 scale
How it was run: (§1)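 Visual 0-9 rating vs control (stand, vigor, malformation, size, chlorosis, overall appearance), scored 4-5 wk after spraying. Seeded soil cups were treated preemergence with compound in aqueous acetone, ~0.0156-0.500 kg/ha equivalent.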

[2] = system: MOOVA (Monochoria); assay: Preemergence weed control under flooded paddy conditions; format: in vivo, Monochoria vaginalis; settings: rated 3-4 weeks after treatment
How it was run: (§2)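 Values are visual 0-9 scores against a control for a preemergence application into paddy flood water at about 0.0313 to 0.500 kg/ha. Greenhouse duration was three to four weeks.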

[3] = system: CYPIR (Rice Flatsedge); assay: Postemergence weed control under flooded paddy conditions; format: in vivo, Cyperus iria; settings: postemergence weeds, rated 3 to 4 weeks after treatment
How it was run: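 Injury ratings (0–9 scale covering stand, vigor, malformation, size, chlorosis and overall appearance versus control) were made three to four weeks after treatment. Test material, about 0.0313 to 0.500 kg/ha a.i. in 50/50 v/v aqueous/acetone, was added to flood water 1.5 to 3 cm deep over 3 to 5 cm weeds and 1.5 to 2.5 leaf rice.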

[4] = system: GLXMAW (Soybean, Williams); assay: Preemergence herbicidal evaluation; format: in vivo, Glycine max, (L.) Merr. cv Williams; settings: rated 4-5 weeks after treatment; for GLXMAW rating: preemergence, 0-9 scale
How it was run: as §1

[5] = system: SAGPY (Arrowhead (Pygmaea)); assay: Preemergence weed control under flooded paddy conditions; format: in vivo, Sagittaria pygmaea; settings: rated 3-4 weeks after treatment
How it was run: as §2

[6] = system: ABUTH (Velvetleaf); assay: Preemergence herbicidal evaluation; format: in vivo, Abutilon theophrasti; settings: rated 4-5 weeks after treatment; for ABUTH rating: preemergence, 0-9 scale
How it was run: as §1

[7] = system: IPOHE (Morningglory, Ivyleaf); assay: Preemergence herbicidal evaluation; format: in vivo, Ipomoea hederacea; settings: rated 4-5 weeks after treatment; for IPOHE rating: preemergence, 0-9 scale
How it was run: as §1

[8] = system: GALAP (Galium); assay: Postemergence herbicidal evaluation; format: in vivo, Galium aparine; settings: for GALAP herbicidal rating: postemergence
How it was run: (§3)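 Two-week-old seedlings sprayed with compound in 50/50 acetone/water plus 0.5% TWEEN 20, at about 0.0156 to 0.500 kg/ha, nozzle at 40 psi. Kept in greenhouse; rated visually 4-5 weeks after treatment on a 0-9 scale versus control, repeat tests averaged.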

[9] = system: CASOB (Sicklepod); assay: Postemergence herbicidal evaluation; format: in vivo, Cassia obtusifolia; settings: for CASOB herbicidal rating: postemergence
How it was run: as §3

[10] = system: ECHCG (Barnyardgrass); assay: Preemergence herbicidal evaluation; format: in vivo, Echinochloa crus-galli; settings: rated 4-5 weeks after treatment; for ECHCG rating: preemergence, 0-9 scale
How it was run: as §1

[11] = system: ZEAMX (Corn, Field); assay: Preemergence herbicidal evaluation; format: in vivo, Zea mays; settings: rated 4-5 weeks after treatment; for ZEAMX rating: preemergence, 0-9 scale
How it was run: as §1

[12] = system: IPOHE (Morningglory, Ivyleaf); assay: Postemergence herbicidal evaluation; format: in vivo, Ipomoea hederacea; settings: for IPOHE herbicidal rating: postemergence
How it was run: as §3

[13] = system: AMBEL (Ragweed, Common); assay: Postemergence herbicidal evaluation; format: in vivo, Ambrosia artemisifolia; settings: for AMBEL herbicidal rating: postemergence
How it was run: as §3

[14] = system: TRZAWR (Wheat, Winter, cv Riband); assay: Preemergence herbicidal evaluation; format: in vivo, Triticum aestivum; settings: rated 4-5 weeks after treatment; for TRZAWR rating: preemergence, 0-9 scale
How it was run: as §1

Cn1c(C(F)(F)F)cc(=O)n(-c2cc(/N=C3/SC(CC(=O)O)C(=O)N3CC(=O)O)c(Cl)cc2F)c1=O (stereo not drawn) [Compound 61, 2-{{2-Chloro-5-[3,6-dihydro-3-methyl-2,6-dioxo-4-(trifluoromethyl)-1(2H)-pyrimidinyl]-4-fluorophenyl}imino}-4-oxo-3,5-thiazolidinediacetic acid]
Preemergence herbicidal rating CASOB ([1]; rate 0.1250 kg/ha): 0.0 | Preemergence herbicidal rating CASOB ([1]; rate 0.2500 kg/ha): 1.0 | MOOVA herbicidal effect rating ([2]; 0.2500 kg/ha): 0.0 | Herbicidal rating CYPIR ([3]; Rate 0.2500 kg/ha): 0.0 | Preemergence herbicidal rating GLXMAW ([4]; rate 0.1250 kg/ha): 0.0 | Preemergence herbicidal rating GLXMAW ([4]; rate 0.2500 kg/ha): 1.0 | SAGPY herbicidal effect rating ([5]; 0.2500 kg/ha): 0.0 | Preemergence herbicidal rating ABUTH ([6]; rate 0.1250 kg/ha): 0.0 | Preemergence herbicidal rating ABUTH ([6]; rate 0.2500 kg/ha): 1.0 | Preemergence herbicidal rating IPOHE ([7]; rate 0.1250 kg/ha): 0.0 | Preemergence herbicidal rating IPOHE ([7]; rate 0.2500 kg/ha): 0.0 | Postemergence herbicidal rating GALAP ([8]; Rate 0.0158 kg/ha): 0.0 | Postemergence herbicidal rating GALAP ([8]; Rate 0.0315 kg/ha): 0.0 | Postemergence herbicidal rating GALAP ([8]; Rate 0.0630 kg/ha): 0.0 | Postemergence herbicidal rating CASOB ([9]; Rate 0.0158 kg/ha): 0.0 | Postemergence herbicidal rating CASOB ([9]; Rate 0.0315 kg/ha): 0.0 | Postemergence herbicidal rating CASOB ([9]; Rate 0.0630 kg/ha): 0.0 | Preemergence herbicidal rating ECHCG ([10]; rate 0.1250 kg/ha): 0.0 | Preemergence herbicidal rating ECHCG ([10]; rate 0.2500 kg/ha): 0.0 | Preemergence herbicidal rating ZEAMX ([11]; rate 0.1250 kg/ha): 0.0 | Preemergence herbicidal rating ZEAMX ([11]; rate 0.2500 kg/ha): 1.0 | Postemergence herbicidal rating IPOHE ([12]; Rate 0.0158 kg/ha): 1.0 | Postemergence herbicidal rating IPOHE ([12]; Rate 0.0315 kg/ha): 2.0 | Postemergence herbicidal rating IPOHE ([12]; Rate 0.0630 kg/ha): 1.0 | Postemergence herbicidal rating AMBEL ([13]; Rate 0.0158 kg/ha): 0.0 | Postemergence herbicidal rating AMBEL ([13]; Rate 0.0315 kg/ha): 0.0 | Postemergence herbicidal rating AMBEL ([13]; Rate 0.0630 kg/ha): 0.0 | Preemergence herbicidal rating TRZAWR ([14]; rate 0.1250 kg/ha): 0.0 | Preemergence herbicidal rating TRZAWR ([14]; rate 0.2500 kg/ha): 1.0

CN1C(=O)C(CC(=O)OCCF)SC1=Nc1cc(-n2c(=O)cc(C(F)(F)F)n(C)c2=O)c(F)cc1Cl (stereo not drawn) [Compound 93, 2-Fluoroethyl 2-{{2-chloro-5-[3,6-dihydro-3-methyl-2,6-dioxo-4-(trifluoromethyl)-1(2H)-pyrimidinyl]-4-fluorophenyl}imino}-3-methyl-4-oxo-5-thiazolidineacetate]
CASOB rating ([1]; 0.0313 kg/ha): 0.0 | CASOB rating ([1]; 0.0625 kg/ha): 0.0 | CASOB rating ([1]; 0.1250 kg/ha): 0.0 | CASOB rating ([1]; 0.2500 kg/ha): 9.0 | MOOVA herbicidal effect rating ([2]; 0.0313 kg/ha): 9.0 | MOOVA herbicidal effect rating ([2]; 0.0625 kg/ha): 9.0 | MOOVA herbicidal effect rating ([2]; 0.1250 kg/ha): 9.0 | MOOVA herbicidal effect rating ([2]; 0.2500 kg/ha): 9.0 | Herbicidal rating CYPIR ([3]; Rate 0.0313 kg/ha): 0.0 | Herbicidal rating CYPIR ([3]; Rate 0.0625 kg/ha): 0.0 | Herbicidal rating CYPIR ([3]; Rate 0.1250 kg/ha): 0.0 | Herbicidal rating CYPIR ([3]; Rate 0.2500 kg/ha): 0.0 | GLXMAW rating ([4]; 0.0313 kg/ha): 0.0 | GLXMAW rating ([4]; 0.0625 kg/ha): 0.0 | GLXMAW rating ([4]; 0.1250 kg/ha): 4.0 | GLXMAW rating ([4]; 0.2500 kg/ha): 8.0 | SAGPY herbicidal effect rating ([5]; 0.0313 kg/ha): 0.0 | SAGPY herbicidal effect rating ([5]; 0.0625 kg/ha): 0.0 | SAGPY herbicidal effect rating ([5]; 0.1250 kg/ha): 3.0 | SAGPY herbicidal effect rating ([5]; 0.2500 kg/ha): 9.0 | ABUTH rating ([6]; 0.0313 kg/ha): 5.0 | ABUTH rating ([6]; 0.0625 kg/ha): 9.0 | ABUTH rating ([6]; 0.1250 kg/ha): 9.0 | ABUTH rating ([6]; 0.2500 kg/ha): 9.0 | IPOHE rating ([7]; 0.0313 kg/ha): 0.0 | IPOHE rating ([7]; 0.0625 kg/ha): 2.0 | IPOHE rating ([7]; 0.1250 kg/ha): 9.0 | IPOHE rating ([7]; 0.2500 kg/ha): 9.0 | GALAP herbicidal rating ([8]; rate 0.0158 kg/ha): 0.0 | GALAP herbicidal rating ([8]; rate 0.0315 kg/ha): 5.0 | GALAP herbicidal rating ([8]; rate 0.0630 kg/ha): 6.0 | CASOB herbicidal rating ([9]; rate 0.0158 kg/ha): 0.0 | CASOB herbicidal rating ([9]; rate 0.0315 kg/ha): 1.0 | CASOB herbicidal rating ([9]; rate 0.0630 kg/ha): 2.0 | ECHCG rating ([10]; 0.0313 kg/ha): 0.0 | ECHCG rating ([10]; 0.0625 kg/ha): 0.0 | ECHCG rating ([10]; 0.1250 kg/ha): 0.0 | ECHCG rating ([10]; 0.2500 kg/ha): 0.0 | ZEAMX rating ([11]; 0.0313 kg/ha): 0.0 | ZEAMX rating ([11]; 0.0625 kg/ha): 0.0 | ZEAMX rating ([11]; 0.1250 kg/ha): 1.0 | ZEAMX rating ([11]; 0.2500 kg/ha): 6.0 | IPOHE herbicidal rating ([12]; rate 0.0158 kg/ha): 9.0 | IPOHE herbicidal rating ([12]; rate 0.0315 kg/ha): 9.0 | IPOHE herbicidal rating ([12]; rate 0.0630 kg/ha): 9.0 | AMBEL herbicidal rating ([13]; rate 0.0158 kg/ha): 9.0 | AMBEL herbicidal rating ([13]; rate 0.0315 kg/ha): 9.0 | AMBEL herbicidal rating ([13]; rate 0.0630 kg/ha): 9.0 | TRZAWR rating ([14]; 0.0313 kg/ha): 0.0 | TRZAWR rating ([14]; 0.0625 kg/ha): 0.0 | TRZAWR rating ([14]; 0.1250 kg/ha): 2.0 | TRZAWR rating ([14]; 0.2500 kg/ha): 7.0
